Measurements as given in US11331314B2, “Amine substituted triazole derivatives and uses thereof” (Bayer Pharma Aktiengesellschaft, priority 2017, dated 2022).

How the values were obtained:
human V1a receptor = human V1a receptor (Homo sapiens, UniProt P37288); assay: Cellular in vitro assay for determining vasopressin receptor activity, V1a receptor cell line (photoprotein luminescence); type: cell-based; details: for IC50: CHO cell line transfected with the human V1a receptor, agonist [Arg8]-vasopressin at EC50 concentration, read-out: IC50 hV1a; for ratio IC50 hV2/hV1a: selectivity ratio of the cellular IC50 values
Outline: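 CHO K1 cells stably expressing human V1a receptor with aequorin photoprotein, loaded overnight with coelenterazine. Compounds preincubated 10 min at various concentrations, then challenged with [Arg^8]-vasopressin at EC50 concentration. Calcium-driven luminescence read immediately; IC50 values derived.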

human V2 receptor = target: T1, human V2 receptor (Homo sapiens, UniProt P30518); assay: Cellular in vitro assay for determining vasopressin receptor activity, V2 receptor cell line (CRE-luciferase); type: cell-based; details: CHO cell line transfected with the human V2 receptor; agonist [Arg8]-vasopressin at EC50 concentration; read-out: IC50 hV2
T1 construct: expressed in transfected cells; host or cells: CHO K1 (ATCC) expressing firefly luciferase under a CRE-responsive promoter
T1 sequence (P30518 whole entry): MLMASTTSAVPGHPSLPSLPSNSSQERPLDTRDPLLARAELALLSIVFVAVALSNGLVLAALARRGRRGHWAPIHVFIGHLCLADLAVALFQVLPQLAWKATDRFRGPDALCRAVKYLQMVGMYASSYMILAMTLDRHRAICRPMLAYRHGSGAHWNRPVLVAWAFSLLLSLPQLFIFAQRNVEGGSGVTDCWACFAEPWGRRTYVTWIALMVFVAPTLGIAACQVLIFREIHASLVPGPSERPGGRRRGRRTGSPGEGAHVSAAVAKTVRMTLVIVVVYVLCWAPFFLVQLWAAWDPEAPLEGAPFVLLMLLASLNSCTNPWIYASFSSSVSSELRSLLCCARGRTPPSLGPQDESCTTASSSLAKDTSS

Sequence of human V1a receptor (P37288 whole entry): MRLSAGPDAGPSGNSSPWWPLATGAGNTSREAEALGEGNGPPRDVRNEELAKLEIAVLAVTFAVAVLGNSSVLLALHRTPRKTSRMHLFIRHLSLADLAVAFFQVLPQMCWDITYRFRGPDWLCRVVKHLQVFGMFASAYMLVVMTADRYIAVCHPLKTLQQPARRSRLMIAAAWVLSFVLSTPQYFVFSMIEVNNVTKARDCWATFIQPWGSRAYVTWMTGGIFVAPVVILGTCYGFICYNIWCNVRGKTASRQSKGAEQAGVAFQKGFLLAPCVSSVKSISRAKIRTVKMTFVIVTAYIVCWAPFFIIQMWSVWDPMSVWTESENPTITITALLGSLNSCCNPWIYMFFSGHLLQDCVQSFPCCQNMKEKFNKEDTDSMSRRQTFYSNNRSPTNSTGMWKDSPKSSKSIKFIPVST

SMILES | IC50 (human V1a receptor) [nM] | ratio IC50 hV2/hV1a (human V1a receptor) | IC50 (human V2 receptor) [nM]
CS(=O)(=O)CCNc1nc(Cn2nc(-c3ccc(Cl)cc3)n(C[C@H](O)C(F)(F)F)c2=O)nn1-c1ccccc1Cl [Example 51, 5-(4-Chlorophenyl)-2-{[1-(2-chlorophenyl)-5-{[2-(methylsulfonyl)ethyl]amino}-1H-1,2,4-triazol-3-yl]methyl}-4-[(2S)-3,3,3-trifluoro-2-hydroxypropyl]-2,4-dihydro-3H-1,2,4-triazol-3-one] | 0.71 | 2.5 | 1.75
O=c1n(Cc2nc(N3CCS(=O)(=O)CC3)n(-c3ncccc3Cl)n2)nc(-c2ccc(Cl)cc2)n1C[C@H](O)C(F)(F)F [Example 96, 5-(4-Chlorophenyl)-2-{[1-(3-chloropyridin-2-yl)-5-(1,1-dioxidothiomorpholin-4-yl)-1H-1,2,4-triazol-3-yl]methyl}-4-[(2S)-3,3,3-trifluoro-2-hydroxypropyl]-2,4-dihydro-3H-1,2,4-triazol-3-one] | 1 | 407.5 | 408
C[C@H](O)CNc1nc(Cn2nc(-c3ccc(Cl)cc3)n(C[C@H](O)C(F)(F)F)c2=O)nn1-c1ccccc1Cl [Example 50, 5-(4-Chlorophenyl)-2-{[1-(2-chlorophenyl)-5-{[(2S)-2-hydroxypropyl]amino}-1H-1,2,4-triazol-3-yl]methyl}-4-[(2S)-3,3,3-trifluoro-2-hydroxypropyl]-2,4-dihydro-3H-1,2,4-triazol-3-one] | 0.47 | 4.5 | 2.08
CC(C)(N)CNc1nc(Cn2nc(-c3ccc(Cl)cc3)n(C[C@H](O)C(F)(F)F)c2=O)nn1CCC(F)(F)F [Example 111, 2-({5-[(2-Amino-2-methylpropyl)amino]-1-(3,3,3-trifluoropropyl)-1H-1,2,4-triazol-3-yl}methyl)-5-(4-chlorophenyl)-4-[(2S)-3,3,3-trifluoro-2-hydroxypropyl]-2,4-dihydro-3H-1,2,4-triazol-3-one] | 18.5 | 148.7 | 2750
O=C1CN(c2nc(Cn3nc(-c4ccc(Cl)cc4)n(C[C@H](O)C(F)(F)F)c3=O)nn2CCC(F)(F)F)CCN1 [Example 112, 4-[3-({3-(4-Chlorophenyl)-5-oxo-4-[(2S)-3,3,3-trifluoro-2-hydroxypropyl]-4,5-dihydro-1H-1,2,4-triazol-1-yl}methyl)-1-(3,3,3-trifluoropropyl)-1H-1,2,4-triazol-5-yl]piperazin-2-one] | 114 | 7.1 | 810
O=c1n(Cc2nc(NCC(O)C(F)(F)F)n(-c3ccccc3Cl)n2)nc(-c2ccc(Cl)cc2)n1C[C@H](O)C(F)(F)F (mixture of isomers) [Example 53, 5-(4-Chlorophenyl)-2-{[1-(2-chlorophenyl)-5-{[3,3,3-trifluoro-2-hydroxypropyl]amino}-1H-1,2,4-triazol-3-yl]methyl}-4-[(2S)-3,3,3-trifluoro-2-hydroxypropyl]-2,4-dihydro-3H-1,2,4-triazol-3-one] | 0.52 | 3.6 | 1.85
O=c1n(Cc2nc(N3CCC3)n(-c3cccc(F)c3)n2)nc(-c2ccc(Cl)cc2)n1C[C@H](O)C(F)(F)F [Example 121, 2-{[5-(Azetidin-1-yl)-1-(3-fluorophenyl)-1H-1,2,4-triazol-3-yl]methyl}-5-(4-chlorophenyl)-4-[(2S)-3,3,3-trifluoro-2-hydroxypropyl]-2,4-dihydro-3H-1,2,4-triazol-3-one] | 6.4 | 1.0 | 6.12
O=C1CCC(CNc2nc(Cn3nc(-c4ccc(Cl)cc4)n(C[C@H](O)C(F)(F)F)c3=O)nn2-c2ccccc2Cl)N1 (mixture of isomers) [Example 63, 5-(4-Chlorophenyl)-2-{[1-(2-chlorophenyl)-5-({[5-oxopyrrolidin-2-yl]methyl}amino)-1H-1,2,4-triazol-3-yl]methyl}-4-[(2S)-3,3,3-trifluoro-2-hydroxypropyl]-2,4-dihydro-3H-1,2,4-triazol-3-one] | 0.42 | 14.0 | 5.8
O=c1n(Cc2nc(N3CC4(C3)CS(=O)(=O)C4)n(-c3ccccc3Cl)n2)nc(-c2ccc(Cl)cc2)n1C[C@H](O)C(F)(F)F [Example 47, 5-(4-Chlorophenyl)-2-{[1-(2-chlorophenyl)-5-(2,2-dioxido-2-thia-6-azaspiro[3.3]hept-6-yl)-1H-1,2,4-triazol-3-yl]methyl}-4-[(2S)-3,3,3-trifluoro-2-hydroxypropyl]-2,4-dihydro-3H-1,2,4-triazol-3-one] | 0.96 | 5.8 | 5.63
NC(=O)[C@@H]1CCCN1c1nc(Cn2nc(-c3ccc(Cl)cc3)n(C[C@H](O)C(F)(F)F)c2=O)nn1-c1ccccc1Cl [Example 58, 1-[1-(2-Chlorophenyl)-3-({3-(4-chlorophenyl)-5-oxo-4-[(2S)-3,3,3-trifluoro-2-hydroxypropyl]-4,5-dihydro-1H-1,2,4-triazol-1-yl}methyl)-1H-1,2,4-triazol-5-yl]-L-prolinamide] | 1.65 | 13.3 | 22

The remaining lines, values ahead:

IC50 (human V1a receptor) [nM] | ratio IC50 hV2/hV1a (human V1a receptor) | IC50 (human V2 receptor) [nM] | SMILES
0.75 | 2.5 | 1.85 | CC(C)(C)CNc1nc(Cn2nc(-c3ccc(Cl)cc3)n(C[C@H](O)C(F)(F)F)c2=O)nn1-c1ccccc1Cl [Example 1, 5-(4-Chlorophenyl)-2-({1-(2-chlorophenyl)-5-[(2,2-dimethylpropyl)amino]-1H-1,2,4-triazol-3-yl}methyl)-4-[(2S)-3,3,3-trifluoro-2-hydroxypropyl]-2,4-dihydro-3H-1,2,4-triazol-3-one]
0.46 | 26.1 | 12 | O=c1n(Cc2nc(NCC3(O)CCNCC3)n(-c3ccccc3Cl)n2)nc(-c2ccc(Cl)cc2)n1C[C@H](O)C(F)(F)F [Example 22, 5-(4-Chlorophenyl)-2-{[1-(2-chlorophenyl)-5-{[(4-hydroxypiperidin-4-yl)methyl]amino}-1H-1,2,4-triazol-3-yl]methyl}-4-[(2S)-3,3,3-trifluoro-2-hydroxypropyl]-2,4-dihydro-3H-1,2,4-triazol-3-one]
1.05 | 4.7 | 4.9 | CC1(O)CCN(c2nc(Cn3nc(-c4ccc(Cl)cc4)n(C[C@H](O)C(F)(F)F)c3=O)nn2-c2ccccc2Cl)C1 (mixture of isomers) [Example 29, 5-(4-Chlorophenyl)-2-({1-(2-chlorophenyl)-5-[3-hydroxy-3-methylpyrrolidin-1-yl]-1H-1,2,4-triazol-3-yl}methyl)-4-[(2S)-3,3,3-trifluoro-2-hydroxypropyl]-2,4-dihydro-3H-1,2,4-triazol-3-one]
0.93 | 8.0 | 7.4 | O=CN1CCC(Nc2nc(Cn3nc(-c4ccc(Cl)cc4)n(C[C@H](O)C(F)(F)F)c3=O)nn2-c2ccccc2Cl)C1 (mixture of isomers) [Example 41, 3-{[1-(2-Chlorophenyl)-3-({3-(4-chlorophenyl)-5-oxo-4-[(2S)-3,3,3-trifluoro-2-hydroxypropyl]-4,5-dihydro-1H-1,2,4-triazol-1-yl}methyl)-1H-1,2,4-triazol-5-yl]amino}pyrrolidine-1-carbaldehyde]
0.37 | 18.9 | 6.9 | O=c1n(Cc2nc(N3CCNC(C(F)(F)F)C3)n(-c3ccccc3Cl)n2)nc(-c2ccc(Cl)cc2)n1C[C@H](O)C(F)(F)F (mixture of isomers) [Example 66]
0.37 | 25.2 | 9.25 | NC(=O)C1CN(c2nc(Cn3nc(-c4ccc(Cl)cc4)n(C[C@H](O)C(F)(F)F)c3=O)nn2-c2ccccc2Cl)CCN1 (mixture of isomers) [Example 33, 4-[1-(2-Chlorophenyl)-3-({3-(4-chlorophenyl)-5-oxo-4-[(2S)-3,3,3-trifluoro-2-hydroxypropyl]-4,5-dihydro-1H-1,2,4-triazol-1-yl}methyl)-1H-1,2,4-triazol-5-yl]piperazine-2-carboxamide]
3.4 | 3.4 | 11.4 | O=c1n(Cc2nc(N3CCC(O)(C(F)(F)F)C3)n(-c3ccccc3Cl)n2)nc(-c2ccc(Cl)cc2)n1C[C@H](O)C(F)(F)F (single isomer, unassigned) [Example 15]
0.93 | 5.0 | 4.65 | NCC(O)CNc1nc(Cn2nc(-c3ccc(Cl)cc3)n(C[C@H](O)C(F)(F)F)c2=O)nn1-c1ccccc1Cl (mixture of isomers) [Example 11, 2-{[5-{[3-Amino-2-hydroxypropyl]amino}-1-(2-chlorophenyl)-1H-1,2,4-triazol-3-yl]methyl}-5-(4-chlorophenyl)-4-[(2S)-3,3,3-trifluoro-2-hydroxypropyl]-2,4-dihydro-3H-1,2,4-triazol-3-one]
1.25 | 1.0 | 1.2 | CC(F)(F)CNc1nc(Cn2nc(-c3ccc(Cl)cc3)n(C[C@H](O)C(F)(F)F)c2=O)nn1-c1ccccc1Cl [Example 23, 5-(4-Chlorophenyl)-2-({1-(2-chlorophenyl)-5-[(2,2-difluoropropyl)amino]-1H-1,2,4-triazol-3-yl}methyl)-4-[(2S)-3,3,3-trifluoro-2-hydroxypropyl]-2,4-dihydro-3H-1,2,4-triazol-3-one]
1.16 | 19.0 | 22 | O=c1n(Cc2nc(N3CCNC(C(F)(F)F)C3)n(-c3ccccc3Cl)n2)nc(-c2ccc(Cl)cc2)n1C[C@H](O)C(F)(F)F (single isomer, unassigned) [Example 67]
